Test results taken from ChEMBL document CHEMBL1201862, “PubChem BioAssay data set” (2004).
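In this assay, cells in 96-well plates receive the compound at five concentrations for 48 hours. Endpoints are linearly interpolated between the surrounding concentrations. The concentration for 50% growth inhibition is given as GI50.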 Calls of active or inactive are those of the source. Cut-off read from the data, not from the text of the source: active = GI50 up to about 1.1 µM and inactive = higher.

How the values were obtained:
Experiment in all cases: NCI-60 cell line screen, 48 h
SNB-75 = tested on: SNB-75
OVCAR-4 = tested on: OVCAR-4
CAKI-1 = tested on: CAKI-1
Malme-3M = tested on: Malme-3M
MDA-N = tested on: MDA-N
U-251 = tested on: U-251
DU-145 = tested on: DU-145
OVCAR-5 = tested on: OVCAR-5
SW-620 = tested on: SW-620
SK-MEL-2 = tested on: SK-MEL-2
HCT-15 = tested on: HCT-15
NCI-H522 = tested on: NCI-H522
RPMI-8226 = tested on: RPMI-8226
MDA-MB-435 = tested on: MDA-MB-435
ACHN = tested on: ACHN
SR = tested on: SR
HCC 2998 = tested on: HCC 2998
HCT-116 = tested on: HCT-116
MDA-MB-231 = tested on: MDA-MB-231
HL-60 = tested on: HL-60

| Structure (SMILES) | GI50 (SNB-75) | GI50 (OVCAR-4) | GI50 (CAKI-1) | GI50 (Malme-3M) | GI50 (MDA-N) | GI50 (U-251) | GI50 (DU-145) | GI50 (OVCAR-5) | GI50 (SW-620) | GI50 (SK-MEL-2) | GI50 (HCT-15) | GI50 (NCI-H522) | GI50 (RPMI-8226) | GI50 (MDA-MB-435) | GI50 (ACHN) | GI50 (SR) | GI50 (HCC 2998) | GI50 (HCT-116) | GI50 (MDA-MB-231) | GI50 (HL-60) |
| --- | --- | --- | --- | --- | --- | --- | --- | --- | --- | --- | --- | --- | --- | --- | --- | --- | --- | --- | --- | --- |
| O=C(O)CCc1nc(-c2ccccc2-n2cccc2)no1 | > 100 µM (inactive) | 11.8 µM (inactive) | > 100 µM (inactive) | 52.6 µM (inactive) | 31.4 µM (inactive) | > 100 µM (inactive) | > 100 µM (inactive) | > 100 µM (inactive) | > 100 µM (inactive) | > 100 µM (inactive) | > 100 µM | 31 µM (inactive) | > 100 µM (inactive) | 16.6 µM (inactive) | > 100 µM (inactive) | 5.46 µM (inactive) | > 100 µM (inactive) | > 100 µM (inactive) | > 100 µM (inactive) |  |
| CC(=O)Nc1c(C)cc(OCC(=O)O)cc1C | > 100 µM (inactive) | > 100 µM (inactive) | > 100 µM (inactive) | > 100 µM (inactive) | > 100 µM (inactive) | > 100 µM (inactive) | > 100 µM (inactive) | > 100 µM (inactive) | > 100 µM (inactive) | > 100 µM (inactive) | > 100 µM | > 100 µM (inactive) | > 100 µM (inactive) | > 100 µM (inactive) | > 100 µM (inactive) | > 100 µM (inactive) | > 100 µM (inactive) | > 100 µM (inactive) | > 100 µM (inactive) | > 100 µM (inactive) |
| O=C(c1ccccc1)n1c(Cc2ccccc2)nc2cc(C34CC5CC(CC(C5)C3)C4)ccc21 | 31.6 µM (inactive) | > 100 µM (inactive) | > 100 µM (inactive) | 29.3 µM (inactive) | 47 µM (inactive) | 44.6 µM (inactive) | 56.5 µM (inactive) | 56.8 µM (inactive) | 80.7 µM (inactive) | 31.9 µM (inactive) | 18.2 µM | 37.3 µM (inactive) | 31.8 µM (inactive) | 92 µM (inactive) | 34.8 µM (inactive) | 39.6 µM (inactive) | 77.3 µM (inactive) | 44.3 µM (inactive) | 54.2 µM (inactive) | 33.7 µM (inactive) |
| O=c1c2cc(-c3ccccc3)sc2nc2n1N=C(c1ccc(Cl)cc1)CS2 | > 100 µM (inactive) | > 100 µM (inactive) | > 100 µM (inactive) | > 100 µM (inactive) | > 100 µM (inactive) | > 100 µM (inactive) | > 100 µM (inactive) | > 100 µM (inactive) | > 100 µM (inactive) |  | > 100 µM | > 100 µM (inactive) | > 100 µM (inactive) | > 100 µM (inactive) | > 100 µM (inactive) | > 100 µM (inactive) | > 100 µM (inactive) | > 100 µM (inactive) | > 100 µM (inactive) | > 100 µM (inactive) |
| COc1cc2c(c(OC)c1OC)-c1ccc(SC)cc1C(O)CC2 (configuration not stated) | < 0.01 µM (active) | 1.94 µM (inactive) | 0.071 µM (active) | 0.0132 µM (active) | 0.19 µM (active) |  | < 0.01 µM (active) | 14.6 µM (inactive) | < 0.01 µM (active) | > 100 µM (inactive) | < 0.01 µM | < 0.01 µM (active) | < 0.01 µM (active) | < 0.01 µM (active) | < 0.01 µM (active) | < 0.01 µM (active) | < 0.01 µM (active) | < 0.01 µM (active) | 0.394 µM (active) | < 0.01 µM (active) |
| COC(=O)[C@H](CCSC)NC(=O)N[C@H](C)c1ccccc1 | > 100 µM (inactive) | > 100 µM (inactive) | > 100 µM (inactive) | 24.9 µM (inactive) | > 100 µM (inactive) | > 100 µM (inactive) | > 100 µM (inactive) | > 100 µM (inactive) | > 100 µM (inactive) | > 100 µM (inactive) | > 100 µM | 26.1 µM (inactive) | > 100 µM (inactive) | > 100 µM (inactive) | > 100 µM (inactive) | > 100 µM (inactive) | > 100 µM (inactive) | > 100 µM (inactive) | > 100 µM (inactive) | > 100 µM (inactive) |
| CCCCC1(NN=C2CCCCC2)C(=O)N(c2ccccc2)N(c2ccccc2)C1=O | > 100 µM (inactive) | > 100 µM (inactive) | > 100 µM (inactive) |  | > 100 µM (inactive) | > 100 µM (inactive) | > 100 µM (inactive) |  | > 100 µM (inactive) |  | > 100 µM | 83 µM (inactive) | 62.1 µM (inactive) | > 100 µM (inactive) | > 100 µM (inactive) | 17.3 µM (inactive) | > 100 µM (inactive) | > 100 µM (inactive) | > 100 µM (inactive) | 18.1 µM (inactive) |
| CC(C)(C)OC(=O)NC(Cc1ccc(OCc2ccccc2)cn1)C(=O)N1CCSCC1 (configuration not stated) | 24 µM (inactive) |  | 73.3 µM (inactive) | 46.5 µM (inactive) | 40.8 µM (inactive) | 74.3 µM (inactive) | 51.9 µM (inactive) | 93.1 µM (inactive) | 81.7 µM (inactive) | 38.7 µM (inactive) | 46.7 µM | 32.9 µM (inactive) | 21.7 µM (inactive) | 28.6 µM (inactive) | 57.3 µM (inactive) | 27 µM (inactive) | 57.8 µM (inactive) | 48.6 µM (inactive) | > 100 µM (inactive) | 16.4 µM (inactive) |
| C=CC(Cl)(CBr)CCC(Br)=C(C)C (configuration not stated) | 41.5 µM (inactive) | 20.8 µM (inactive) | 9.31 µM (inactive) | 17.6 µM (inactive) | 19.4 µM (inactive) | 16.9 µM (inactive) | 33.3 µM (inactive) | 26.8 µM (inactive) | 15.8 µM (inactive) | 16.6 µM (inactive) | 10.4 µM | 16.9 µM (inactive) | 21.1 µM (inactive) | 20.4 µM (inactive) | 21.6 µM (inactive) | 21.7 µM (inactive) | 23.6 µM (inactive) | 23.6 µM (inactive) | 19.4 µM (inactive) |  |
| O=C1c2ccccc2C(=O)c2c1ccc1c3ccccc3n(-c3ccccc3)c21 | 18.3 µM (inactive) | 18.8 µM (inactive) | 18.2 µM (inactive) | 28.7 µM (inactive) | 25 µM (inactive) | 32.7 µM (inactive) | 18.7 µM (inactive) | 27 µM (inactive) | 15.8 µM (inactive) | 25.7 µM (inactive) | 16.1 µM | 15.4 µM (inactive) | 7.24 µM (inactive) | 9.31 µM (inactive) | 17.3 µM (inactive) | 5.89 µM (inactive) | 46.6 µM (inactive) | 19.7 µM (inactive) | 22.4 µM (inactive) | 2.03 µM (inactive) |
| CC(=O)O[C@@H]1C[C@@]2(C)[C@@H]3CC=C4[C@@H](C[C@H](O)C(=O)C4(C)C)[C@]3(C)C(=O)C[C@]2(C)[C@H]1[C@@](C)(O)C(=O)/C=C/C(C)(C)OC(C)=O | 1.85 µM (inactive) | 0.789 µM (active) | 0.211 µM (active) |  | 1.37 µM (inactive) | 0.617 µM (active) | 2.03 µM (inactive) | 12.8 µM (inactive) | 0.516 µM (active) | 1.26 µM (inactive) | 0.875 µM | 0.541 µM (active) | 2.02 µM (inactive) | 1.01 µM (active) | 0.16 µM (active) | 3.33 µM (inactive) | 0.035 µM (active) | 1.63 µM (inactive) | 2.78 µM (inactive) | 0.746 µM (active) |
| CCN(CC)C(=O)Cn1c(-c2ccccc2)cc2ccccc21 | 41.5 µM (inactive) | 66.8 µM (inactive) |  | 80.4 µM (inactive) | 28.1 µM (inactive) | 40.1 µM (inactive) | 56 µM (inactive) | 43.1 µM (inactive) | 43.2 µM (inactive) | 72.8 µM (inactive) | 43.3 µM | 28 µM (inactive) | > 10 µM (inactive) | 34.1 µM (inactive) | 30.9 µM (inactive) | 32.5 µM (inactive) | 78.7 µM (inactive) | 24.8 µM (inactive) | 37.5 µM (inactive) | 47.4 µM (inactive) |
| O=c1[nH]cc(/N=C/c2cc(Cl)cc(Cl)c2O)c(=O)[nH]1 |  | 21.3 µM (inactive) | 24.6 µM (inactive) | 20.8 µM (inactive) | 29.2 µM (inactive) | 32.7 µM (inactive) | 23 µM (inactive) | 88.1 µM (inactive) |  | 19.3 µM (inactive) | 36.4 µM | 21.5 µM (inactive) | 22.1 µM (inactive) | 23.5 µM (inactive) | 36.3 µM (inactive) | 14.3 µM (inactive) | 33.3 µM (inactive) | 20.6 µM (inactive) | 48.3 µM (inactive) | 13.6 µM (inactive) |
| C#CCn1ncc2c(SCc3ccccc3)ncnc21 | 40.8 µM (inactive) | > 100 µM (inactive) | 57.8 µM (inactive) | > 100 µM (inactive) | > 100 µM (inactive) | > 100 µM (inactive) | > 100 µM (inactive) | > 100 µM (inactive) | > 100 µM (inactive) | > 100 µM (inactive) | > 100 µM | 73.1 µM (inactive) | > 100 µM (inactive) | 99.5 µM (inactive) | > 100 µM (inactive) | 18.8 µM (inactive) | > 100 µM (inactive) | 62.8 µM (inactive) | > 100 µM (inactive) |  |
| CCO[C@H]1O[C@@H]2OC3(C)CCC4[C@H](C)CCC([C@H]1C)[C@]42OO3 (some centres not stated) | > 74.1 µM (inactive) | 25.8 µM (inactive) | > 100 µM (inactive) | 42.3 µM (inactive) | 49.7 µM (inactive) | 42.7 µM (inactive) | > 100 µM (inactive) | > 30.2 µM (inactive) | > 44.9 µM (inactive) | > 100 µM (inactive) | 23.9 µM | 43.5 µM (inactive) | 3.3 µM (inactive) | 19.1 µM (inactive) | 32.2 µM (inactive) | 10.3 µM (inactive) | 97.1 µM (inactive) | 35.2 µM (inactive) | > 57 µM (inactive) | 0.159 µM (active) |
